11 compounds from article PMC6520686, “Activation Studies of the γ-Carbonic Anhydrases from the Antarctic Marine Bacteria Pseudoalteromonas haloplanktis and Colwellia psychrerythraea with Amino Acids and Amines” (Marine Drugs, 2019) can be followed below.

One experiment concerns T1, PhaCA.
T1 construct: purified recombinant gamma-class enzyme
Kind of experiment: stopped-flow CO2 hydration assay. Format: biochemical, Pseudoalteromonas haloplanktis. To be noted: activation constant (activator); CO2 substrate; TRIS pH 8.3, 0.1 M NaClO4, 25 °C; 15 min pre-incubation. The source says: stopped-flow CO2 hydration assay on PhaCA

The subject of a further experiment is T2, CpsCA.
T2 construct: purified recombinant gamma-class enzyme
Kind of experiment: stopped-flow CO2 hydration assay. The class given is biochemical, Colwellia psychrerythraea. The settings on record: activation constant (activator); CO2 substrate; TRIS pH 8.3, 0.1 M NaClO4, 25 °C; 15 min pre-incubation. From the text: stopped-flow CO2 hydration assay on CpsCA

SMILES strings stand for the structures.

With `N[C@@H](Cc1ccc(O)cc1)C(=O)O` [compound 9, L-Tyr], the “KA (μM) * / PhaCA ^b” value in the experiment with PhaCA came out at 1.02 µM. Moreover, the “KA (μM) * / CpsCA ^b” value in the experiment with CpsCA stood at 19.5 µM.
The like results for `Nc1ccc(C[C@H](N)C(=O)O)cc1` [compound 11, 4-H2N-L-Phe] were, in that order, 3.27 µM and 17.2 µM.
As to `N[C@H](CCC(=O)O)C(=O)O` [compound 23, D-Glu], the “KA (μM) * / CpsCA ^b” value with CpsCA is 12.0 µM.
Take `NCc1ccccn1` [compound 15, 2-Pyridyl-methylamine]: in the experiment on PhaCA, the “KA (μM) * / PhaCA ^b” value is 2.39 µM. For the same compound, in the experiment on CpsCA, the “KA (μM) * / CpsCA ^b” value was found to be 21.5 µM.
In the case of `N[C@@H](Cc1c[nH]c2ccccc12)C(=O)O` [compound 7, L-Trp], the “KA (μM) * / PhaCA ^b” value in the experiment on PhaCA came to 7.12 µM. In addition, the “KA (μM) * / CpsCA ^b” value in the experiment with CpsCA amounted to 21.3 µM.
The like results for `N[C@@H](Cc1ccc(O)c(O)c1)C(=O)O` [compound 5, L-DOPA] were, in that order, 1.08 µM and 4.79 µM.
The like results for `N[C@H](Cc1ccc(O)c(O)c1)C(=O)O` [compound 6, D-DOPA] were, in that order, 0.72 µM and 11.2 µM.
Consider `N[C@H](Cc1ccc(O)cc1)C(=O)O` [compound 10, D-Tyr], for which, in the experiment on PhaCA, the “KA (μM) * / PhaCA ^b” value came to 7.35 µM. In the experiment with CpsCA, the “KA (μM) * / CpsCA ^b” value is 18.4 µM.
For `NCCc1c[nH]cn1` [compound 12, Histamine], in the experiment with PhaCA, the “KA (μM) * / PhaCA ^b” value stood at 6.48 µM. Moreover, the “KA (μM) * / CpsCA ^b” value in the experiment with CpsCA stood at 20.6 µM.
Turning to `NCCc1ccc(O)c(O)c1` [compound 13, Dopamine], in the experiment on PhaCA, the “KA (μM) * / PhaCA ^b” value is 8.70 µM.
For the compound `N[C@H](Cc1ccccc1)C(=O)O` [compound 4, D-Phe], the “KA (μM) * / PhaCA ^b” value in the experiment on PhaCA was determined as 3.19 µM. The “KA (μM) * / CpsCA ^b” value in the experiment on CpsCA was 15.4 µM.
